Assay results taken from patent US6110934A, “Substituted benzamide derivatives and their use as anticonvulsants” (SmithKline Beecham p.l.c., priority 1996, dated 2000).
Structures can show the parent of a compound that is named as a salt.

The molecules below were run against novel receptor obtainable from rat forebrain tissue (assay: Radioligand binding assay, displacement of [3H]-Compound A). Conditions: competition with [3H]-Compound A (usually 20 nM), room temperature, 1 hour.
Procedure: The affinity of test compounds to the novel receptor site is assessed as follows. Whole forebrain tissue is obtained from rats. The tissue is first homogenised in buffer (usually 50 mM Tris/HCl, pH 7.4). The homogenised tissue is washed by centrifugation and resuspension in the same buffer, then stored at -70° C. until used. […] The final concentration of [3H]-Compound A in the mixture is usually 20 nM. The mixture is incubated at room temperature for 1 hour. [3H]-Compound A bound to the tissue is then separated from unbound [3H]-Compound A by filtration through Watman GF/B glass fibre filters. The filters are then washed rapidly with ice-cold buffer. The amount of radioactivity bound to the tissue trapped on the filters is measured by addition of liquid scintillation cocktail to the filters followed by counting in a liquid scintillation counter. In order to determine the amount of "specific" binding of [3H]-Compound A, parallel assays are carried out as above in which [3H]-Compound A and tissue are incubated together in the presence of unlabelled Compound A (usually 3 μM). The amount of binding of [3H]-Compound A remaining in the presence of this unlabelled compound is defined as "non-specific" binding. This amount is subtracted from the total amount of [3H]-Compound A binding (i.e. that present in the absence of unlabelled compound) to obtain the amount of "specific" binding of [3H]-Compound A to the novel site. The affinity of the binding of test compounds to the novel site can be estimated by incubating together [3H]-Compound A and tissue in the presence of a range of concentrations of the compound to be tested. The decrease in the level of specific [3H]-Compound A binding as a result of competition by increasing concentrations of the compound under test is plotted graphically, and non-linear regression analysis of the resulthant curve is used to provide an estimate of compound affinity in terms of pKi value.

Row | Structure (SMILES) | pKi
1 | COc1cc(N)c(Cl)cc1C(=O)Nc1cccc2c1CCN(C)C2.Cl [Example 1, N-(2-Methyl-1,2,3,4-tetrahydroisoquinolin-5-yl)-4-amino-5-chloro-2-methoxy-benzamide Hydrochloride] | greater than 7
2 | CCCOc1cc(N)c(Cl)cc1C(=O)Nc1cccc2c1CCN(C)C2 [Example 10, N-(2-Methyl-1,2,3,4-tetrahydroisoquinolin-5-yl)-4-amino-5-chloro-2-propoxy-benzamide] | greater than 7
3 | COc1cc(N)c(I)cc1C(=O)Nc1cccc2c1CCN(C)C2 [Example 13, N-(2-Methyl-1,2,3,4-tetrahydroisoquinolin-5-yl)-4-amino-5-iodo-2-methoxybenzamide] | greater than 7
4 | COc1cc(OC)c(C(=O)Nc2cccc3c2CCNC3)cc1Cl [Example 19, N-(1,2,3,4-Tetrahydroisoquinolin-5-yl)-5-chloro-2,4-dimethoxybenzamide] | greater than 7
5 | COc1cc(C(C)(C)C)ccc1C(=O)Nc1cccc2c1CCN(C)C2.Cl [Example 35, N-(2-Methyl-1,2,3,4-tetrahydroisoquinolin-5-yl)-4-tert-butyl-2-methoxybenzamide Hydrochloride] | greater than 7
6 | CCc1cc(OC)c(C(=O)Nc2cccc3c2CCN(C)C3)cc1Cl [Example 37, N-(2-Methyl-1,2,3,4-tetrahydroisoquinolin-5-yl)-4-ethyl-2-methoxy-5-chloro Benzamide, Hydrochloride] | greater than 7
7 | COc1cc(C(C)C)c(C(F)(F)F)cc1C(=O)Nc1cccc2c1CCN(C)C2.Cl [Example 46, N-(2-Methyl-1,2,3,4-tetrahydroisoquinolin-5-yl)-4-iso-propyl-5-trifluoromethyl-2-methoxybenzamide, Hydrochloride] | greater than 7
8 | COc1ccc(C(=O)C(C)C)cc1C(=O)Nc1cccc2c1CCN(C)C2 [Example 49, N-(2-Methyl-1,2,3,4-tetrahydroisoquinolin-5-yl) 5-iso-butyroyl-2-methoxy-benzamide Hydrochloride] | greater than 7
9 | COc1ccc(C(=O)C(C)(C)C)cc1C(=O)Nc1cccc2c1CCN(C)C2.Cl [Example 50, N-(2-Methyl-1,2,3,4-tetrahydroisoquinolin-5-yl)-5-pivaloyl-2-methoxybenzamide, Hydrochloride] | greater than 7
10 | CCc1cc(OC)c(C(=O)Nc2cccc3c2CCN(C)C3)cc1C(F)(F)F.Cl [Example 68, N-(2-Methyl-1,2,3,4-tetrahydroisoquinolin-5-yl)-4-ethyl-2-methoxy-5-trifluoromethylbenzamide, Hydrochloride] | greater than 7
11 | COc1cc(OC(C)C)c(C(C)=O)cc1C(=O)Nc1cccc2c1CCN(C)C2.Cl [Example 70, N-(2-Methyl-1,2,3,4-tetrahydroisoquinolin-5-yl)-2-methoxy-4-iso-propyloxy-5-acetyl-benzamide, Hydrochloride] | greater than 7

Results, then the molecule that gave them:

Row | pKi | Structure (SMILES)
12 | greater than 7 | COc1cc(N)c(Br)cc1C(=O)Nc1cccc2c1CCN(C)C2 [Example 7, N-(2-Methyl-1,2,3,4-tetrahydroisoquinolin-5-yl)-4-amino-5-bromo-2-methoxybenzamide]
13 | greater than 7 | COc1cc(OC)c(C(=O)Nc2cccc3c2CCN(C)C3)cc1Cl [Example 16, N-(2-Methyl-1,2;3,4-tetrahydroisoquinolin-5-yl)-5-chloro-2,4-dimethoxybenzamide]
14 | greater than 7 | COc1cc(OC)c(C(=O)Nc2cccc3c2CCN(C)C3)cc1Br [Example 17, N-(2-Methyl-1,2,3,4-tetrahydroisoquinolin-5-yl)-5-bromo-2,4-dimethoxybenzamide]
15 | greater than 7 | COc1cc(C)c(Cl)cc1C(=O)Nc1cccc2c1CCN(C)C2 [Example 20, N-(2-Methyl-1,2,3,4-tetrahydroisoquinolin-5-yl)-5-chloro-2-methoxy-4-methylbenzamide]
16 | greater than 7 | CCOc1cc(OC)c(C(=O)Nc2cccc3c2CCN(C)C3)cc1Cl [Example 23, N-(2-Methyl-1,2,3,4-tetrahydroisoquinolin-5-yl)-5-chloro-4-ethoxy-2-methoxybenzamide]
17 | greater than 7 | COc1cc(C)c(Br)cc1C(=O)Nc1cccc2c1CCN(C)C2 [Example 25, N-(2-Methyl-1,2,3,4-tetrahydroisoquinolin-5-yl)-5-bromo-2-methoxy-4-methylbenzamide]
18 | greater than 7 | COc1cc(OC(C)C)c(Br)cc1C(=O)Nc1cccc2c1CCN(C)C2.Cl [Example 45, N-(2-Methyl-1,2,3,4-tetrahydroisoquinolin-5-yl)-5-bromo-4-iso-propoxy-2-methoxybenzamide, Hydrochloride]
19 | greater than 7 | COc1cc(OC)c(C(=O)Nc2ccc3c(c2)CN(C)CC3)cc1Br.Cl [Example 52, N-(2-Methyl-1,2,3,4-tetrahydroisoquinolin-7-yl)-5-bromo-2,4-dimethoxybenzamide, Hydrochloride Salt]
20 | greater than 7 | COc1cc(OC(C)C)c(Cl)cc1C(=O)Nc1cccc2c1CCN(C)C2.Cl [Example 71, N-(2-Methyl-1,2,3,4-tetrahydroisoquinolin-5-yl)-5-chloro-2-methoxy-4-iso-propoxybenzamide, Hydrochloride]
